≈ marks a conversion by molar mass, not a printed value. Like-named read-outs stand apart in the source and are kept apart here.
Experiments:
[1] = target: LexA (Escherichia coli, UniProt P0A7C2); details: peptide at 1.5 mM; LexA 5 uM, 0.25 uM activated RecA, 37 degrees, 30 min (FIG. 20)
Protocol: Cleavage of LexA was initiated by the addition of 0.25 uM activated RecA. The mixture was incubated at 37 degrees for 30 min. Aliquots were removed and quenched in aqueous acetonitrile containing 0.1% TFA.
The cleavage of LexA protein was monitored by HPLC using a gradient of 30 to 90% buffer B (9.9% H2O, 90% CH3CN, 0.1% TFA) in buffer A(98% H2O, 1.9% CH3CN, 0.1% TFA) and recording absorbance at 214 nm. […] Error bars represent one standard deviation of three separate experiments.

[2] = tested on: E. coli MG1655; experiment: pre-exposure to rifampicin, then plating on 35 ng/mL ciprofloxacin; assay type: cell-based
[3] = tested on: LacZ strain (ATCC 25922-ΔlacZ); experiment: in vitro susceptibility testing (NCCLS method), rifampin MIC; assay type: cell-based, E. coli; details: Escherichia coli
Protocol: (§1) In vitro susceptibility testing of strains was preformed using the NCCLS method. (See National Committee for Clinical Laboratory Standards. 1997. Reference method for broth dilution anti-fungal susceptibility testing of yeasts. Approved standard M27-A. National Committee for Clinical Laboratory Standards, Wayne, Pa.) Eight colonies from each group at the 72 hr time point from MHA plate with and without rifampin were obtained. Minimum inhibitory concentrations (“MICs”) were performed in duplicate on three occasions on each colony. […] Minimum inhibitory concentrations of both the LexA and LacZ strains pre-treatment=8.0 mg/L.

[4] = tested on: LexA strain (ATCC 25922 lexA(S119A)); experiment: as above; assay type: cell-based, E. coli; details: Escherichia coli
Protocol: as §1

[5] = tested on: ATCC 25922 lexA(S119A); experiment: in vitro susceptibility testing with rifampin, Example 8; assay type: cell-based, E. coli
Protocol: (§2) In vitro susceptibility testing was performed with rifampin on the parent strains and on cells isolated from the agar plates after therapy.

[6] = tested on: E. coli ATCC 25922-ΔlacZ; experiment: as above; assay type: cell-based; details: Escherichia coli
Protocol: as §2

[7] = tested on: E. coli ATCC 25922-ΔlacZ; experiment: neutropenic Swiss ICR mouse thigh infection treated with rifampin, CFU determination; details: lacZ Strain; rifampin 100 mg/kg subcutaneous every 12 hours; 96 h
Protocol: Two hours after infection the mice received rifampin at 100 mg/kg (subcutaneous) every 12 hours. The mice continued the rifampin regimen until they were sacrificed. Two mice were sacrificed at 0, 24, 48, 72 and 96 hours. The thighs were removed, homogenized, 1:10 serial diluted, and plated for CFU determination. Homogenates were plated on MH agar (NHA) to quantify the entire population of organisms and on rifampin containing MHA plates (16 mg/L) to quantify the population of organisms with a rifampin resistance phenotype.

[8] = tested on: ATCC 25922 lexA(S119A); experiment: neutropenic CD1 mouse thigh infection treated with rifampin, colonies on rifampin plates; details: rifampin 100 mg/kg twice daily subcutaneous; plates 128 mg/L; over the 72 h study period
Protocol: (§3) Two hours after infection mice were treated with rifampin 100 mg/kg twice daily via the subcutaneous route. Groups of two mice were sacrificed at the started of therapy (zero hour) and every 24 h for a period of 72 h. After euthanasia, thigh were removed, homogenized, diluted, and plated for CFU enumeration (lower limit of detection is 2 log cfu/thigh). Homogenate dilutions were plated on MHA with and without rifampin (128 mg/L).

[9] = tested on: E. coli ATCC 25922-ΔlacZ; experiment: as above; details: rifampin 100 mg/kg twice daily subcutaneous; plates 128 mg/L; after 72 h of therapy
Protocol: as §3

[10] = tested on: ATCC 25922-ΔlacZ(gyrA(S83L)); experiment: second step mutation rate to 650 ng/ml ciprofloxacin resistance; assay type: cell-based, E. coli; details: wild-type strain already resistant to 35 ng/ml, evolving resistance to 650 ng/ml ciprofloxacin
Excerpt: (§4) Error bars represent standard deviation from two independent rate determinations.

[11] = tested on: ATCC 25922-lexA(S119A)(gyrA(S83L)); experiment: as above; assay type: cell-based, E. coli; details: lexA(S119A) strain already resistant to 35 ng/ml, evolving resistance to 650 ng/ml ciprofloxacin
Excerpt: as §4

[12] = tested on: E. coli K-12 (MG1655) isogenic loss of function strains; experiment: ciprofloxacin MIC of isogenic strains (Table 5); details: Escherichia coli
[13] = tested on: ATCC 25922-lexA(S119A); experiment: mouse thigh infection treated with ciprofloxacin, resistant colonies; details: mice given approximately cytostatic ciprofloxacin dose
[14] = ATCC25922, colonies from the 72 hr time point of rifampin therapy in mice, read-out: Minimum Inhibitory Concentrations, Post
[15] = ATCC25922, pre-treatment, read-out: Minimum Inhibitory Concentrations, Pre

LexA, sequence (P0A7C2 whole entry): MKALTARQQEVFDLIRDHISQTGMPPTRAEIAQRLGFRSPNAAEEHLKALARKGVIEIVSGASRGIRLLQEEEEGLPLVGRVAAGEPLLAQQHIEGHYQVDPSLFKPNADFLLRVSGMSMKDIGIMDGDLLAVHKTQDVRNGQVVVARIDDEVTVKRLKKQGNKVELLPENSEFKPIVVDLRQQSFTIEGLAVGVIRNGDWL

VAAGEPL [peptide 3]
inhibition of LexA's autocleavage [1]: inhibition

CO[C@H]1/C=C/O[C@@]2(C)Oc3c(C)c(O)c4c(O)c(c(/C=N/N5CCN(C)CC5)c(O)c4c3C2=O)NC(=O)/C(C)=C\C=C\[C@H](C)[C@H](O)[C@@H](C)[C@@H](O)[C@@H](C)[C@H](OC(C)=O)[C@@H]1C [rifampin]
effect on number of ciprofloxacin resistant colonies ([2]; 4 mg/mL rifampicin in PBS, four days, 37° C., plated on 35 ng/mL ciprofloxacin): no effect
effect on number of ciprofloxacin resistant cells ([2]; 12 mg/mL rifampicin in PBS, four days, 37° C., plated on 35 ng/mL ciprofloxacin): dramatic increase
effect on number of ciprofloxacin resistant cells ([2]; 36 mg/mL rifampicin in PBS, four days, 37° C., plated on 35 ng/mL ciprofloxacin): dramatic increase
effect on number of ciprofloxacin resistant cells in umuDC deletion strain ([2]; umuDC deletion stain, 12 or 36 mg/mL rifampicin): essentially completely lost
MIC [3, 14]: > 16400 µg/mL
MIC [3, 15]: 8 µg/mL (≈ 9.72 µM)
MIC [4, 14]: 16 to 32 µg/mL (≈ 19.4 to 38.9 µM)
MIC [4, 15]: 8 µg/mL (≈ 9.72 µM)
MIC ([5]; Escherichia coli, ATCC25922, parent strain, read-out: MIC): 8 µg/mL (≈ 9.72 µM)
MIC ([5]; colonies after therapy): 8.0 µg/mL (≈ 9.72 µM)
MIC ([6]; ATCC25922, colonies isolated from the rifampin containing plates after therapy): > 256 µg/mL
MIC ([6]; ATCC25922, parent strain): 8 µg/mL (≈ 9.72 µM)
CFU/Thigh, Media (outcome of mice) [7]: mice dead.
colonies on rifampin containing plates [8]: no colonies grew
colonies on rifampin containing plates [9]: large number

O=C(O)c1cn(C2CC2)c2cc(N3CCNCC3)c(F)cc2c1=O [ciprofloxacin]
'second step' mutation rate [10]: 1.9 (±0.21)×10^−4 mutants/(cell day)
'second step' mutation rate [11]: 5.5 (±4.9)×10^−7 mutants/(cell day)
MIC ([12]; MG1655, read-out: ciprofloxacin MIC, strain lexA (S119A), WT gyrA): 0.03 µg/mL
MIC ([12]; MG1655, read-out: ciprofloxacin MIC, strain lexA (S119A), gyrA S83L): 0.35 µg/mL
MIC ([12]; MG1655, read-out: ciprofloxacin MIC, strain lexA (S119A), gyrA S83Δ): 0.25 µg/mL
MIC ([12]; MG1655, read-out: ciprofloxacin MIC, strain ΔdinB, WT gyrA): 0.035 µg/mL
MIC ([12]; MG1655, read-out: ciprofloxacin MIC, strain ΔdinB, gyrA S83L): 0.45 µg/mL
MIC ([12]; MG1655, read-out: ciprofloxacin MIC, strain ΔdinB, gyrA S83Δ): 0.25 µg/mL
MIC ([12]; MG1655, read-out: ciprofloxacin MIC, strain ΔdinB, ΔumuDC, WT gyrA): 0.035 µg/mL
MIC ([12]; MG1655, read-out: ciprofloxacin MIC, strain ΔdinB, ΔumuDC, gyrA S83L): 0.45 µg/mL
MIC ([12]; MG1655, read-out: ciprofloxacin MIC, strain ΔdinB, ΔumuDC, gyrA S83Δ): 0.25 µg/mL
MIC ([12]; MG1655, read-out: ciprofloxacin MIC, strain ΔlacZ, WT gyrA): 0.035 µg/mL
MIC ([12]; MG1655, read-out: ciprofloxacin MIC, strain ΔlacZ, gyrA S83L): 0.45 µg/mL
MIC ([12]; MG1655, read-out: ciprofloxacin MIC, strain ΔlacZ, gyrA S83Δ): 0.25 µg/mL
MIC ([12]; MG1655, read-out: ciprofloxacin MIC, strain ΔpolB, WT gyrA): 0.03 µg/mL
MIC ([12]; MG1655, read-out: ciprofloxacin MIC, strain ΔpolB, gyrA S83L): 0.45 µg/mL
MIC ([12]; MG1655, read-out: ciprofloxacin MIC, strain ΔpolB, gyrA S83Δ): 0.25 µg/mL
MIC ([12]; MG1655, read-out: ciprofloxacin MIC, strain ΔpolB, ΔdinB, WT gyrA): 0.025 µg/mL
MIC ([12]; MG1655, read-out: ciprofloxacin MIC, strain ΔpolB, ΔdinB, gyrA S83L): 0.45 µg/mL
MIC ([12]; MG1655, read-out: ciprofloxacin MIC, strain ΔpolB, ΔdinB, gyrA S83Δ): 0.25 µg/mL
MIC ([12]; MG1655, read-out: ciprofloxacin MIC, strain ΔpolB, ΔdinB, ΔumuDC, WT gyrA): 0.025 µg/mL
MIC ([12]; MG1655, read-out: ciprofloxacin MIC, strain ΔpolB, ΔdinB, ΔumuDC, gyrA S83L): 0.45 µg/mL
MIC ([12]; MG1655, read-out: ciprofloxacin MIC, strain ΔpolB, ΔdinB, ΔumuDC, gyrA S83Δ): 0.25 µg/mL
MIC ([12]; MG1655, read-out: ciprofloxacin MIC, strain ΔpolB, ΔumuDC, WT gyrA): 0.025 µg/mL
MIC ([12]; MG1655, read-out: ciprofloxacin MIC, strain ΔpolB, ΔumuDC, gyrA S83L): 0.45 µg/mL
MIC ([12]; MG1655, read-out: ciprofloxacin MIC, strain ΔpolB, ΔumuDC, gyrA S83Δ): 0.25 µg/mL
MIC ([12]; MG1655, read-out: ciprofloxacin MIC, strain ΔrecD, WT gyrA): 0.035 µg/mL
MIC ([12]; MG1655, read-out: ciprofloxacin MIC, strain ΔrecD, gyrA S83L): 0.35 µg/mL
MIC ([12]; MG1655, read-out: ciprofloxacin MIC, strain ΔrecD, gyrA S83Δ): 0.25 µg/mL
MIC ([12]; MG1655, read-out: ciprofloxacin MIC, strain ΔumuDC, WT gyrA): 0.035 µg/mL
MIC ([12]; MG1655, read-out: ciprofloxacin MIC, strain ΔumuDC, gyrA S83L): 0.45 µg/mL
MIC ([12]; MG1655, read-out: ciprofloxacin MIC, strain ΔumuDC, gyrA S83Δ): 0.25 µg/mL
Colonies isolated on plates containing ciprofloxacin ([13]; day 1 post infection, plates 20 ng/mL): 3
Colonies isolated on plates containing ciprofloxacin ([13]; day 1 post infection, plates 80 ng/mL): 1
Colonies isolated on plates containing ciprofloxacin ([13]; day 2 post infection, plates 20 ng/mL): 2
Colonies isolated on plates containing ciprofloxacin ([13]; day 2 post infection, plates 80 ng/mL): 0

Source: US7455840B2, “Compositions and methods to reduce mutagenesis” (priority 2003, dated 2008)
